# Molecular target: T1, GLUT1 (Homo sapiens, UniProt P11166)
# T1 sequence (P11166 1-492): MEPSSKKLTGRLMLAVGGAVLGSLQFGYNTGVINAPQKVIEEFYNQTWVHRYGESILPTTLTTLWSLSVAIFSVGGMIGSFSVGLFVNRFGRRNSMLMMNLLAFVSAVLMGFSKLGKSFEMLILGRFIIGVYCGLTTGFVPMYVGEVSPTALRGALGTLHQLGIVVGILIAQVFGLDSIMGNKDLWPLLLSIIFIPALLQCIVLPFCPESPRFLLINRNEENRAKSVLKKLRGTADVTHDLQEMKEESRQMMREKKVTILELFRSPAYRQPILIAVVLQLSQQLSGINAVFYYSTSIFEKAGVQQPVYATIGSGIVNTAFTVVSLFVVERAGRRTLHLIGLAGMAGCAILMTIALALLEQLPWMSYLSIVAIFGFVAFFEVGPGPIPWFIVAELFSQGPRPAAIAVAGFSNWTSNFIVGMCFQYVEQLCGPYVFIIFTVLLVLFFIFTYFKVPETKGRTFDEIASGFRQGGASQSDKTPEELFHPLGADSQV
# Assay: Indirect measurement of GLUT1 activity by quantification of intracellular ATP levels (glucose induced ATP increase)
# Assay type: cell-based
# Design: endogenous in cells; host or cells: DLD1 or CHO-K1
# Details: read-out: IC50 regarding glucose induced ATP increase (GLUT1 inhibition)
# Summary of the method: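 DLD1 or CHO-K1 cells were starved overnight in glucose-free medium with 1% FCS, then combined with an oxidative phosphorylation inhibitor. GLUT1 activity was read as glucose-induced ATP increase, GLUT2 as fructose-induced. Intracellular ATP was quantified by CellTiter-Glo luminescence.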
row,SMILES,IC50 [nM]
1,Cc1nn(Cc2ccc(C(=O)Nc3ccc(N(C)C)cc3)cc2)c(C)c1NC(=O)c1cc(C(F)(F)F)nc2ccc(Br)cc12 [Example 1069],19.8
2,CNC(=O)c1ccc(Cn2nc(C)c(NC(=O)c3cc(C(F)(F)F)nc4ccc(Br)cc34)c2C)nc1 [Example 1070],20.2
3,Cc1nn(Cc2ccccc2O)c(C)c1NC(=O)c1cc(C(F)(F)F)nc2c(Cl)cc(Cl)cc12 [Example 1071],21
4,Cc1nn(CC2CCN(S(C)(=O)=O)CC2)c(C)c1NC(=O)c1cc(C(F)(F)F)nc2ccc(Br)cc12 [Example 1072],21
5,Cc1nn(Cc2ccc(C(=O)NCC3CC3)cn2)c(C)c1NC(=O)c1cc(C(F)(F)F)nc2ccc(Br)cc12 [Example 1073],21.7
6,Cc1nn(Cc2ccncc2C#N)c(C)c1NC(=O)c1cc(C(F)(F)F)nc2ccc(Br)cc12 [Example 1074],22.3
7,COc1cc(C(=O)Nc2c(C(F)(F)F)nn(Cc3ccc(C#N)cc3)c2C)c2ccccc2n1 [Example 1075],22.5
8,Cc1c(NC(=O)c2cc(C(F)(F)F)nc3ccc(Br)cc23)c(C(F)(F)F)nn1Cc1ccc(C(N)=O)cn1 [Example 1076],22.7
9,Cc1nn(Cc2ccc(C(=O)NCCCCCO)cc2)c(C)c1NC(=O)c1cc(C(F)(F)F)nc2ccc(Br)cc12 [Example 1077],23.1
10,CNC(=O)c1ccc(Cn2nc(C(F)(F)F)c(NC(=O)c3cc(C(F)(F)F)nc4ccc(Br)cc34)c2C)nc1 [Example 1078],23.9
11,Cc1nn(Cc2ccc(C(=O)NCC3CC3)cc2)c(C)c1NC(=O)c1cc(C(F)(F)F)nc2ccc(Br)cc12 [Example 1079],24.4
12,Cc1nn(Cc2ccc(C(=O)NCC(F)F)cc2)c(C)c1NC(=O)c1cc(C(F)(F)F)nc2ccc(Br)cc12 [Example 1080],25.8
13,Cc1nn(Cc2ccc(C(=O)N3CCC[C@@H]3CO)cc2)c(C)c1NC(=O)c1cc(C(F)(F)F)nc2ccc(Br)cc12 [Example 1081],26.3
14,Cc1nn(Cc2ncccc2C#N)c(C)c1NC(=O)c1cc(C(N)=O)nc2ccccc12 [Example 1082],28.2
15,Cc1nn(Cc2ccc(C(=O)NCCCCO)cc2)c(C)c1NC(=O)c1cc(C(F)(F)F)nc2ccc(Br)cc12 [Example 1083],29.4
16,Cc1nn(Cc2ccc(C(=O)NCCOc3ccccc3F)cc2)c(C)c1NC(=O)c1cc(C(F)(F)F)nc2ccc(Br)cc12 [Example 1084],30.8
17,Cc1nn(Cc2ccc(C(=O)NCC(C)(C)O)cc2)c(C)c1NC(=O)c1cc(C(F)(F)F)nc2ccc(Br)cc12 [Example 1085],31.2
18,Cc1nn(Cc2ccc(C#N)nc2)c(C)c1NC(=O)c1cc(C(N)=O)nc2ccc(F)cc12 [Example 1086],31.6
19,Cc1nn(Cc2ccc(C(=O)N3CC4(CCS4(=O)=O)C3)cc2)c(C)c1NC(=O)c1cc(C(F)(F)F)nc2ccc(Br)cc12 [Example 1087],32.2
20,Cc1nn(Cc2ccc(F)cc2)c(C)c1NC(=O)c1cc(C(F)(F)F)nc2ccc([N+](=O)[O-])cc12 [Example 1088],34.9
21,COc1ccc(Cn2nc(C(F)(F)F)c(NC(=O)c3cc(OC)nc4ccccc34)c2C)cc1 [Example 1089],35.5

row,SMILES,IC50 [nM]
1,Cc1nn(Cc2ccc(C(=O)NCCCn3ccnc3)cc2)c(C)c1NC(=O)c1cc(C(F)(F)F)nc2ccc(Br)cc12 [Example 1091],36
2,Cc1nn(Cc2ccc(C#N)cc2)c(C)c1NC(=O)c1cc(N(C)C)nc2ccccc12 [Example 1092],37.9
3,Cc1nn(Cc2ccc(C(=O)NCCO)cn2)c(C)c1NC(=O)c1cc(C(F)(F)F)nc2ccc(Br)cc12 [Example 1093],38.4
4,Cc1nn(CC2CCN(S(C)(=O)=O)CC2)c(C)c1NC(=O)c1cc(C(N)=O)nc2ccccc12 [Example 1094],39.3
5,Cc1nn(Cc2ccc(C(=O)NC(C)(CO)CO)cc2)c(C)c1NC(=O)c1cc(C(F)(F)F)nc2ccc(Br)cc12 [Example 1096],41.1
6,C=Cc1ccc(Cn2nc(C)c(NC(=O)c3cc(C)nc4ccc(C)cc34)c2C)cc1 [Example 1097],41.3
7,Cc1nn(Cc2ccc(C(=O)NCCNC(=O)C3CC3)cc2)c(C)c1NC(=O)c1cc(C(F)(F)F)nc2ccc(Br)cc12 [Example 1098],41.4
8,Cc1nn(Cc2ccc(C(=O)N3CCC(CO)CC3)cc2)c(C)c1NC(=O)c1cc(C(F)(F)F)nc2ccc(Br)cc12 [Example 1099],41.9
9,Cc1nn(CCc2ccc(F)cc2)c(C)c1NC(=O)c1cc(C(N)=O)nc2ccccc12 [Example 1100],42.1
10,Cc1nn(Cc2ccc(C(=O)N[C@@H](C)CO)cc2)c(C)c1NC(=O)c1cc(C(F)(F)F)nc2ccc(Br)cc12 [Example 1101],42.8
11,COc1cc(C(=O)Nc2c(C)nn(Cc3ncccc3C#N)c2C)c2ccccc2n1 [Example 1102],43.5
12,Cc1nn(CC2COc3ccccc3O2)c(C)c1NC(=O)c1cc(C(N)=O)nc2ccccc12 (stereo not drawn) [Example 1103],44.7
13,COC(=O)[C@@H](NC(=O)c1ccc(Cn2nc(C)c(NC(=O)c3cc(C(F)(F)F)nc4ccc(Br)cc34)c2C)cc1)[C@@H](C)O [Example 1104],47.8
14,Cc1c(NC(=O)c2cc(C(F)(F)F)nc3ccc(Br)cc23)c(C(F)(F)F)nn1Cc1ccncc1C#N [Example 1105],48.2
15,Cc1nn(Cc2ccc(C(=O)NCCn3cccn3)cc2)c(C)c1NC(=O)c1cc(C(F)(F)F)nc2ccc(Br)cc12 [Example 1106],49.6
16,Cc1nn(Cc2ccc(C(=O)NCCCC(C)(C)CO)cc2)c(C)c1NC(=O)c1cc(C(F)(F)F)nc2ccc(Br)cc12 [Example 1107],52.2
17,Cc1ccc(CNC(=O)c2ccc(Cn3nc(C)c(NC(=O)c4cc(C(F)(F)F)nc5ccc(Br)cc45)c3C)cc2)cc1 [Example 1108],52.5
18,COc1ccc(CCCn2nc(C)c(NC(=O)c3cc(OC)nc4ccccc34)c2C)cc1 [Example 1109],54.2
19,Cc1nn(Cc2ccc(C(=O)NCc3cccs3)cc2)c(C)c1NC(=O)c1cc(C(F)(F)F)nc2ccc(Br)cc12 [Example 1110],55.4
20,CNC(=O)N1CCC(Cn2nc(C)c(NC(=O)c3cc(C(F)(F)F)nc4ccc(Br)cc34)c2C)CC1 [Example 1111],56.8

# Further compounds by falling IC50, results first:
row,IC50 [nM],SMILES
1,19.5,Cc1nn(Cc2ccc(C(=O)NCc3ccccn3)cc2)c(C)c1NC(=O)c1cc(C(F)(F)F)nc2ccc(Br)cc12 [Example 1068]
2,19.2,Cc1nn(Cc2ccc(C(=O)NCCC(N)=O)cc2)c(C)c1NC(=O)c1cc(C(F)(F)F)nc2ccc(Br)cc12 [Example 1067]
3,19.1,Cc1nn(Cc2ccc(C(=O)Nc3cccc(Cl)c3)cc2)c(C)c1NC(=O)c1cc(C(F)(F)F)nc2ccc(Br)cc12 [Example 1066]
4,18.7,Cc1c(NC(=O)c2cc(C(F)(F)F)nc3ccc(Br)cc23)c(C(F)(F)F)nn1Cc1ccc(C(=O)NCCO)cn1 [Example 1065]
5,18.6,Cc1nn(Cc2ccc(C(=O)Nc3ccccn3)cc2)c(C)c1NC(=O)c1cc(C(F)(F)F)nc2ccc(Br)cc12 [Example 1064]
6,16.8,COc1ccc(CCNC(=O)c2ccc(Cn3nc(C)c(NC(=O)c4cc(C(F)(F)F)nc5ccc(Br)cc45)c3C)cc2)cc1 [Example 1063]
7,16.4,Cc1nn(Cc2ccc(C(=O)N[C@H]3CC[C@@H](O)CC3)cc2)c(C)c1NC(=O)c1cc(C(F)(F)F)nc2ccc(Br)cc12 [Example 1062]
8,15.8,Cc1nn(Cc2ccc(C(=O)NCc3ccc(-c4nnn[nH]4)cc3)cc2)c(C)c1NC(=O)c1cc(C(F)(F)F)nc2ccc(Br)cc12 [Example 1060]
9,15.6,Cc1nn(Cc2ccc(C(=O)NCC(F)(F)F)cc2)c(C)c1NC(=O)c1cc(C(F)(F)F)nc2ccc(Br)cc12 [Example 1059]
10,15.3,Cc1nn(Cc2ccc(C(=O)NCC3CCCO3)cc2)c(C)c1NC(=O)c1cc(C(F)(F)F)nc2ccc(Br)cc12 (stereo not drawn) [Example 1058]
11,15,Cc1c(NC(=O)c2cc(C(F)(F)F)nc3ccc(Br)cc23)c(C(F)(F)F)nn1Cc1ccc(C#N)nc1 [Example 1056]
12,14.4,Cc1nn(Cc2ccc(C(=O)Nc3cc[nH]n3)cc2)c(C)c1NC(=O)c1cc(C(F)(F)F)nc2ccc(Br)cc12 [Example 1055]
13,13.9,COCCN(CCC#N)C(=O)c1ccc(Cn2nc(C)c(NC(=O)c3cc(C(F)(F)F)nc4ccc(Br)cc34)c2C)cc1 [Example 1054]
14,13.7,Cc1nn(Cc2ccc(C(=O)N[C@H]3CC[C@H](O)CC3)cc2)c(C)c1NC(=O)c1cc(C(F)(F)F)nc2ccc(Br)cc12 [Example 1053]
15,13.1,COc1cc(C(=O)Nc2c(C)nn(Cc3ccc(S(C)(=O)=O)cc3)c2C)c2ccccc2n1 [Example 1052]
16,11.8,Cc1nn(Cc2ccc(C(=O)NCCCO)cc2)c(C)c1NC(=O)c1cc(C(F)(F)F)nc2ccc(Br)cc12 [Example 1051]
17,11.7,Cc1nn(Cc2ccc(C(=O)NCCN3CC4(CCS4(=O)=O)C3)cc2)c(C)c1NC(=O)c1cc(C(F)(F)F)nc2ccc(Br)cc12 [Example 1049]
18,11.5,Cc1nn(Cc2ccc(O)cc2)c(C)c1NC(=O)c1cc(C(F)(F)F)nc2c(Cl)cc(Cl)cc12 [Example 1048]
19,11.2,Cc1nn(Cc2ccc(C(=O)Nc3nccs3)cc2)c(C)c1NC(=O)c1cc(C(F)(F)F)nc2ccc(Br)cc12 [Example 1047]

# From patent US20170037028A1 (BAYER PHARMA AKTIENGESELLSCHAFT, priority 2013, published 2017)
